Source: ChEMBL document CHEMBL4402583, “Rational Substitution of ε-Lysine for α-Lysine Enhances the Cell and Membrane Selectivity of Pore-Forming Melittin” (J Med Chem, 2020)
Converted amounts (≈) assume the structure as drawn. The source made the active and inactive calls. The calls are words filed in the database; no cut-off is given here.

Key:
[1] = Hemolytic activity against human erythrocytes assessed as hemoglobin release incubated for 1 hr; type: ADME, cell-based, Erythrocyte; settings: read-out: HD50
Oryctolagus cuniculus [2] = assay: Induction of reepithelialization in injured New Zealand white rabbit cornea assessed as wound healing administered topically for qid measured at day 5 post-injury by fluorescein sodium staining based microscopic imaging analysis (reference value: 39.8 +/- 6.2 %); type: organism-based; settings: in vivo, topical_or_ocular
Enterobacteriaceae = assay: Antibacterial activity against Carbapenem-Resistant Enterobacteriaceae assessed as reduction in bacterial growth incubated for 24 hrs by broth microdilution method; type: functional
NHDF = assay: Cytotoxicity against HDF cells assessed as truncation and reduction in cytoskeleton at 500 ug/ml incubated for 24 hrs by Alexa Fluor […] phalloidin-FITC/Hoescht dye staining based fluorescence microscopic analysis; type: cell-based; settings: human
Oryctolagus cuniculus [3] = assay: Induction of reepithelialization in injured New Zealand white rabbit cornea assessed as wound healing administered topically for qid measured at day 2 post-injury by fluorescein sodium staining based microscopic imaging analysis (reference value: 76.6 +/- 4.5 %); type: organism-based; settings: in vivo, topical_or_ocular
HaCaT = assay: Cytotoxicity against human HaCaT cells assessed as truncation and reduction in cytoskeleton at 500 ug/ml incubated for 24 hrs by Alexa Fluor […] phalloidin-FITC/Hoescht dye staining based fluorescence microscopic analysis; type: cell-based
Enterococcus faecalis [4] = assay: Antibacterial activity against vancomycin-resistant Enterococcus faecalis ATCC 29212 assessed as log10 reduction in bacterial viability at 2 to 4 times MIC incubated for 30 mins in MHB medium followed by reincubation on MH agar plate for 24 to 48 hrs by time kill kinetics analysis; type: functional
Oryctolagus cuniculus [5] = assay: Induction of reepithelialization in injured New Zealand white rabbit cornea assessed as wound healing administered topically for qid measured at day 4 post-injury by fluorescein sodium staining based microscopic imaging analysis (reference value: 48.4 +/- 7.6 %); type: organism-based; settings: in vivo, topical_or_ocular
Candida albicans = assay: Antifungal activity against Candida albicans assessed as reduction in fungal growth incubated for 24 hrs by broth microdilution method; type: functional
Acinetobacter baumannii [6] = assay: Antibacterial activity against Acinetobacter baumannii 1001 assessed as reduction in bacterial viability at 2 or 4 times MIC incubated up to 24 hrs in MHB medium followed by reincubation on MH agar plate for 24 to 48 hrs by time kill kinetics assay; type: functional, organism-based
T-cell [7] = assay: Immunogenicity in human PBL T cells assessed as increase in IFN-gamma production at 62.5 or 125 ug/ml incubated for 24 hrs by ELISA; type: ADME, cell-based
Enterococcus = assay: Antibacterial activity against vancomycin-resistant Enterococcus assessed as reduction in bacterial growth incubated for 24 hrs by broth microdilution method; type: functional
Staphylococcus aureus [8] = assay: Antibacterial activity against methicillin-sensitive Staphylococcus aureus assessed as reduction in bacterial growth incubated for 24 hrs by broth microdilution method; type: functional
Enterococcus faecalis [9] = assay: Antibacterial activity against vancomycin-resistant Enterococcus faecalis 1002 assessed as log10 reduction in bacterial viability at 2 to 4 times MIC incubated for 30 mins in MHB medium followed by reincubation on MH agar plate for 24 to 48 hrs by time kill kinetics analysis; type: functional
Pseudomonas aeruginosa = assay: Antibacterial activity against Pseudomonas aeruginosa assessed as reduction in bacterial growth incubated for 24 hrs by broth microdilution method; type: functional
Enterococcus faecalis [10] = assay: Resistance index, ratio of MIC for vancomycin-resistant Enterococcus faecalis 1010 measured after 20 serial passages by broth microdilution method to MIC for vancomycin-resistant Enterococcus faecalis 1010 incubated for 24 hrs by broth microdilution method; type: functional
Klebsiella pneumoniae = assay: Antibacterial activity against Klebsiella pneumoniae 1008 assessed as reduction in bacterial viability at 2 or 4 times MIC incubated up to 24 hrs in MHB medium followed by reincubation on MH agar plate for 24 to 48 hrs by time kill kinetics assay; type: functional, organism-based
T-cell [11] = assay: Immunogenicity in human PBL T cells assessed as increase in IL-2 production at 62.5 or 125 ug/ml incubated for 24 hrs by ELISA; type: ADME, cell-based
Escherichia coli [12] = assay: Antibacterial activity against Escherichia coli 1004 assessed as reduction in bacterial viability at 2 or 4 times MIC incubated up to 24 hrs in MHB medium followed by reincubation on MH agar plate for 24 to 48 hrs by time kill kinetics assay; type: functional, organism-based
Oryctolagus cuniculus [13] = assay: Induction of reepithelialization in injured New Zealand white rabbit cornea assessed as wound healing administered topically for qid measured at day 3 post-injury by fluorescein sodium staining based microscopic imaging analysis (reference value: 63.9 +/- 5.3 %); type: organism-based; settings: in vivo, topical_or_ocular
T-cell [14] = assay: Immunogenicity in human PBL T cells assessed as increase in IL-5 production at 62.5 or 125 ug/ml incubated for 24 hrs by ELISA; type: ADME, cell-based
Enterococcus faecalis [15] = assay: Induction of pore formation in intact vancomycin-resistant Enterococcus faecalis 1002 cell membrane assessed as SG uptake at 2 times MIC by SG dye based fluorescence based assay; type: organism-based
Staphylococcus aureus [16] = assay: In vivo antibacterial activity against Staphylococcus aureus ATCC 29213 infected in C57BL/6 mouse assessed as reduction in bacterial burden by measuring log10 CFU/cornea at 0.3% administered topically as two times on day 1, four times on day 2 and two times on day 3 measured at 48 hrs post-final dose by 10 fold serial dilution method (reference value: 6.5 +/- 0.7 log10CFU); type: functional
Enterococcus faecalis [17] = assay: Induction of pore formation in intact vancomycin-resistant Enterococcus faecalis ATCC 29212 cell membrane assessed as SG uptake at 2 times MIC by SG dye based fluorescence based assay; type: organism-based
Enterococcus faecalis [18] = assay: Antibacterial activity against vancomycin-resistant Enterococcus faecalis 1010 assessed as log10 reduction in bacterial viability at 2 to 4 times MIC incubated for 30 mins in MHB medium followed by reincubation on MH agar plate for 24 to 48 hrs by time kill kinetics analysis; type: functional
Acinetobacter baumannii [19] = assay: Induction of pore formation in intact Acinetobacter baumannii 1001 cell membrane assessed as SG uptake at 2 times MIC by SG dye based fluorescence based assay; type: organism-based
Acinetobacter baumannii [20] = assay: Antibacterial activity against Acinetobacter baumannii ATCC 19606 assessed as reduction in bacterial growth at sublethal concentrations measured after 20 serial passages by broth microdilution method; type: functional, organism-based; settings: ATCC 19606 = CIP 70.34 = JCM 6841
[21] = Stability of the compound in rabbit tear fluids assessed as parent compound remaining measured after 4 hrs by UPLC-MS analysis; type: ADME, Oryctolagus cuniculus; settings: tear fluid, read-out: Stability
Oryctolagus cuniculus [22] = assay: Induction of reepithelialization in injured New Zealand white rabbit cornea assessed as wound healing at 0.3% administered topically for qid measured at day 1 post-injury by fluorescein sodium staining based microscopic imaging analysis (reference value: 89.9 +/- 2.9 %); type: organism-based; settings: in vivo, topical_or_ocular
Staphylococcus aureus [23] = assay: Antibacterial activity against methicillin-resistance Staphylococcus aureus assessed as reduction in bacterial growth incubated for 24 hrs by broth microdilution method; type: functional
Oryctolagus cuniculus [24] = assay: Induction of reepithelialization in injured New Zealand white rabbit cornea assessed as wound healing administered topically for qid measured at day 8 post-injury by fluorescein sodium staining based microscopic imaging analysis (reference value: 3.8 %); type: organism-based; settings: in vivo, topical_or_ocular
Escherichia coli [25] = assay: Induction of pore formation in intact Escherichia coli 1004 cell membrane assessed as SG uptake at 2 times MIC by SG dye based fluorescence based assay; type: organism-based
[26] = Stability of the compound in rabbit tear fluid measured after 2 hrs by UPLC-MS analysis; type: ADME, Oryctolagus cuniculus
[27] = Cytotoxicity against HDF cells assessed as cell viability at 500 ug/ml incubated for 24 hrs by MTS assay relative to control; type: cell-based; settings: human, HDF cells (NHDF, human dermal fibroblasts); read-out: Activity
Acinetobacter baumannii [28] = assay: Antibacterial activity against multidrug-resistant Acinetobacter baumannii assessed as reduction in bacterial growth incubated for 24 hrs by broth microdilution method; type: functional
T-cell [29] = assay: Immunogenicity in human PBL T cells assessed as increase in IL-4 production at 62.5 or 125 ug/ml incubated for 24 hrs by ELISA; type: ADME, cell-based
Oryctolagus cuniculus [30] = assay: Induction of reepithelialization in injured New Zealand white rabbit cornea assessed as wound healing administered topically for qid measured at day 7 post-injury by fluorescein sodium staining based microscopic imaging analysis (reference value: 8.6 %); type: organism-based; settings: in vivo, topical_or_ocular
Oryctolagus cuniculus [31] = assay: Induction of reepithelialization in injured New Zealand white rabbit cornea assessed as wound healing administered topically for qid measured at day 6 post-injury by fluorescein sodium staining based microscopic imaging analysis (reference value: 24.1 +/- 8.5 %); type: organism-based; settings: in vivo, topical_or_ocular

SMILES: CC[C@H](C)[C@H](NC(=O)CN)C(=O)NCC(=O)N[C@@H](C)C(=O)N[C@H](C(=O)N[C@@H](CC(C)C)C(=O)NCCC[C@@H](CN)C(=O)N[C@H](C(=O)N[C@@H](CC(C)C)C(=O)N[C@H](C(=O)N[C@H](C(=O)NCC(=O)N[C@@H](CC(C)C)C(=O)N1CCC[C@H]1C(=O)N[C@@H](C)C(=O)N[C@@H](CC(C)C)C(=O)N[C@H](C(=O)N[C@@H](CO)C(=O)N[C@@H](Cc1c[nH]c2ccccc12)C(=O)N[C@H](C(=O)NCCC[C@@H](CN)C(=O)N[C@@H](CCCNC(=N)N)C(=O)N[C@@H](CCCCN)C(=O)N[C@@H](CCCNC(=N)N)C(=O)N[C@@H](CCC(N)=O)C(=O)N[C@@H](CCC(N)=O)C(N)=O)[C@@H](C)CC)[C@@H](C)CC)[C@@H](C)O)[C@@H](C)O)C(C)C)C(C)C
- HC50 at 1 h [1]: 215 µg/mL
- Activity (Oryctolagus cuniculus [2]): 21.7%
- MIC (Enterobacteriaceae): 4 to 64 µg/mL (≈ 1.41 to 22.5 µM)
- MIC50 (Enterobacteriaceae): 8 µg/mL (≈ 2.81 µM)
- Activity (NHDF): Toxic
- Activity (Oryctolagus cuniculus [3]): 60.3%
- Activity (HaCaT): Toxic
- log(activity) (Enterococcus faecalis [4]): >5
- Activity (Oryctolagus cuniculus [5]): 33.1%
- MIC (Candida albicans): 16 to 32 µg/mL (≈ 5.62 to 11.2 µM)
- MIC50 (Candida albicans): 32 µg/mL (≈ 11.2 µM)
- Activity (Acinetobacter baumannii [6]): Active
- Activity (T-cell [7]): Non-Toxic
- MIC (Enterococcus): 4 to 16 µg/mL (≈ 1.41 to 5.62 µM)
- MIC50 (Enterococcus): 8 µg/mL (≈ 2.81 µM)
- MIC (Staphylococcus aureus [8]): 16 to 128 µg/mL (≈ 5.62 to 45 µM)
- MIC50 (Staphylococcus aureus [8]): 64 µg/mL (≈ 22.5 µM)
- log(activity) (Enterococcus faecalis [9]): >5
- MIC (Pseudomonas aeruginosa): 8 to 64 µg/mL (≈ 2.81 to 22.5 µM)
- MIC50 (Pseudomonas aeruginosa): 32 µg/mL (≈ 11.2 µM)
- Ratio (Enterococcus faecalis [10]): 4
- Activity (Klebsiella pneumoniae): Active
- Activity (T-cell [11]): Non-Toxic
- Activity (Escherichia coli [12]): Active
- Activity (Oryctolagus cuniculus [13]): 44.9%
- Activity (T-cell [14]): Non-Toxic
- Activity (Enterococcus faecalis [15]): Active
- Activity (Staphylococcus aureus [16]): 3.9 log10CFU
- Activity (Enterococcus faecalis [17]): Active
- log(activity) (Enterococcus faecalis [18]): >5
- Activity (Acinetobacter baumannii [19]): Active
- Activity (Acinetobacter baumannii [20]): Active
- remaining at 4 h [21]: 90.3%
- Activity (Oryctolagus cuniculus [22]): 83.4%
- MIC50 (Staphylococcus aureus [23]): 64 µg/mL (≈ 22.5 µM)
- Activity (Oryctolagus cuniculus [24]): 2.9%
- Activity (Escherichia coli [25]): Active
- Stability [26]: Stable
- viability at 24 h, 500 ug/ml [27]: 91.9%
- MIC (Acinetobacter baumannii [28]): 2 to 8 µg/mL (≈ 0.703 to 2.81 µM)
- MIC50 (Acinetobacter baumannii [28]): 4 µg/mL (≈ 1.41 µM)
- Activity (T-cell [29]): Non-Toxic
- Activity (Oryctolagus cuniculus [30]): 4.6%
- Activity (Oryctolagus cuniculus [31]): 14.7%
